From PubChem BioAssay AID248 (DTP/NCI, 2004)
Several values for one entry are separate records, joined by “and”; a condition that tells them apart may be missing. Equal entries are not always repeated. Inconclusive results and toxic doses are left out. No stated cut-off is given here; in the data, active means T/C of 150% or more; inactive means T/C below 125%.

Test system: L1210 leukemia ip in BDF1 mice, survival T/C
Assay: NCI In Vivo Anticancer Drug Screen. Data for tumor model L1210 Leukemia (intraperitoneal) in B6D2F1 (BDF1) mice
Conditions: endpoint: mean survival time, higher = longer survival
Procedure, shortened: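 Mice bearing the transplanted tumor received compound or vehicle. Survival of the treated group was divided by that of the vehicle-treated control group to give the ratio.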

[1] = dose: 25.0 mg/kg/injection, schedule: Q04DX003 (ip), vehicle: saline with Tween-80
[2] = dose: 50.0 mg/kg/injection, schedule: Q04DX003 (ip), vehicle: saline with Tween-80
[3] = dose: 100.0 mg/kg/injection, schedule: Q04DX003 (ip), vehicle: saline with Tween-80
[4] = dose: 75.0 mg/kg/injection, schedule: Q01DX001 (ip), vehicle: other
[5] = dose: 150.0 mg/kg/injection, schedule: Q01DX001 (ip), vehicle: other
[6] = dose: 100.0 mg/kg/injection, schedule: Q01DX009 (ip), vehicle: Klucel (hydroxypropylcellulose) (HPC)
[7] = dose: 200.0 mg/kg/injection, schedule: Q01DX009 (ip), vehicle: Klucel (hydroxypropylcellulose) (HPC)
[8] = dose: 400.0 mg/kg/injection, schedule: Q01DX009 (ip), vehicle: Klucel (hydroxypropylcellulose) (HPC)

Measured: T/C

Cn1c(O)c(N=NC(N)=S)c2ccccc21
inactive: dose: 3.0 mg/kg/injection, schedule: Q01DX015 (ip), vehicle: carboxymethylcellulose (CMC) 96 % of control | dose: 6.0 mg/kg/injection, schedule: Q01DX015 (ip), vehicle: carboxymethylcellulose (CMC) 103 % of control | dose: 12.0 mg/kg/injection, schedule: Q01DX015 (ip), vehicle: carboxymethylcellulose (CMC) 97 % of control | dose: 25.0 mg/kg/injection, schedule: Q01DX015 (ip), vehicle: carboxymethylcellulose (CMC) 106 % of control | dose: 50.0 mg/kg/injection, schedule: Q01DX015 (ip), vehicle: carboxymethylcellulose (CMC) 103 % of control | dose: 62.5 mg/kg/injection, schedule: Q01DX015 (ip), vehicle: carboxymethylcellulose (CMC) 107 % of control

Nc1nc(NCCCc2ccccc2)cc(=O)[nH]1
inactive: [1] 98 % of control | [2] 92 % of control

O=C(O)COc1cc(Cl)ccc1Cl
inactive: dose: 100.0 mg/kg/injection, schedule: Q04DX002 (ip), vehicle: Klucel (hydroxypropylcellulose) (HPC) 95 % of control | dose: 200.0 mg/kg/injection, schedule: Q04DX002 (ip), vehicle: Klucel (hydroxypropylcellulose) (HPC) 95 % of control | dose: 400.0 mg/kg/injection, schedule: Q04DX002 (ip), vehicle: Klucel (hydroxypropylcellulose) (HPC) 100 % of control

CCCCn1ccnc1
inactive: dose: 12.5 mg/kg/injection, schedule: Q04DX003 (ip), vehicle: saline 105 % of control | dose: 25.0 mg/kg/injection, schedule: Q04DX003 (ip), vehicle: saline 103 % of control

COc1ccc2cc(OC)ccc2c1
inactive: dose: 100.0 mg/kg/injection, schedule: Q01DX001 (ip), vehicle: saline sonified 98 % of control | dose: 200.0 mg/kg/injection, schedule: Q01DX001 (ip), vehicle: saline sonified 96 % of control | dose: 400.0 mg/kg/injection, schedule: Q01DX001 (ip), vehicle: saline sonified 96 % of control

Nc1ccccc1SC1CC(=O)N(c2cccc3ccccc23)C1=O (centres undefined)
inactive: dose: 100.0 mg/kg/injection, schedule: Q04DX003 (ip), vehicle: Klucel (hydroxypropylcellulose) (HPC) 89 % of control | dose: 400.0 mg/kg/injection, schedule: Q04DX003 (ip), vehicle: Klucel (hydroxypropylcellulose) (HPC) 90 % of control

O=C(Nc1ccc(F)cc1)c1cccc(C(=O)Nc2ccc(F)cc2)c1
inactive: [1] 96 % of control | [2] 93 % of control | [3] 95 % of control and 87 % of control

CCOC(=O)N1CCN(C(=S)[S-])CC1.CCOC(=O)N1CCN(C(=S)[S-])CC1.[Zn]
inactive: dose: 150.0 mg/kg/injection, schedule: Q01DX001 (ip), vehicle: saline 86 % of control | dose: 300.0 mg/kg/injection, schedule: Q01DX001 (ip), vehicle: saline 87 % of control

O=C(NCC(F)(F)C(F)(F)C(F)(F)C(F)(F)C(F)(F)C(F)(F)C(F)(F)F)Oc1ccccc1
inactive: [4] 104 % of control | [5] 96 % of control | dose: 300.0 mg/kg/injection, schedule: Q01DX001 (ip), vehicle: other 94 % of control

O=C(c1ccccc1)c1cccnc1
inactive: [3] 101 % of control | dose: 200.0 mg/kg/injection, schedule: Q04DX003 (ip), vehicle: saline with Tween-80 101 % of control | dose: 400.0 mg/kg/injection, schedule: Q04DX003 (ip), vehicle: saline with Tween-80 104 % of control

O=S1(=O)C2CCC(C2)C1Cl (centres undefined)
inactive: dose: 25.0 mg/kg/injection, schedule: Q01DX009 (ip), vehicle: saline with Tween-80 102 % of control | dose: 50.0 mg/kg/injection, schedule: Q01DX009 (ip), vehicle: saline with Tween-80 101 % of control

CC1(C)CN=C(c2cccc([N+](=O)[O-])c2)O1
inactive: [6] 98 % of control | [7] 105 % of control | [8] 100 % of control

C(=C\c1ccccn1)/c1ccc2c(c1)OCO2
inactive: dose: 75.0 mg/kg/injection, schedule: Q01DX009 (ip), vehicle: saline 93 % of control | dose: 100.0 mg/kg/injection, schedule: Q01DX001 (ip), vehicle: saline 101 % of control | dose: 150.0 mg/kg/injection, schedule: Q01DX009 (ip), vehicle: saline 93 % of control | dose: 200.0 mg/kg/injection, schedule: Q01DX001 (ip), vehicle: saline 96 % of control | dose: 300.0 mg/kg/injection, schedule: Q01DX009 (ip), vehicle: saline 88 % of control | dose: 400.0 mg/kg/injection, schedule: Q01DX001 (ip), vehicle: saline 95 % of control

CCCCCCNC(=O)c1ccc(C(=O)NCCCCCC)cc1
inactive: [6] 94 % of control and 101 % of control | [7] 102 % of control | [8] 95 % of control and 90 % of control

O=c1c(N=Nc2ccc(Cl)cc2)c(O)n(-c2ccccc2)c(=S)n1-c1ccccc1
inactive: dose: 37.5 mg/kg/injection, schedule: Q01DX001 (ip), vehicle: other 94 % of control | [4] 107 % of control | [5] 96 % of control

CC(=O)OC1CCC2C3CCC4=CC(=O)C(C(O)(C(F)(F)F)C(F)(F)F)CC4(C)C3CCC12C (centres undefined)
inactive: dose: 100.0 mg/kg/injection, schedule: Q01DX001 (sc), vehicle: steriod suspending solution 106 % of control | dose: 200.0 mg/kg/injection, schedule: Q01DX001 (sc), vehicle: steriod suspending solution 101 % of control | dose: 400.0 mg/kg/injection, schedule: Q01DX001 (sc), vehicle: steriod suspending solution 101 % of control

CC1CN=C(c2cccc(NC(=O)NCCCCNC(=O)Nc3cccc(C4=NCC(C)N4)c3)c2)N1 (centres undefined)
inactive: dose: 6.5 mg/kg/injection, schedule: Q01DX Z (ip), vehicle: carboxymethylcellulose (CMC) 94 % of control

N=C(N)S/C=C/CSC(=N)N
inactive: dose: 10.0 mg/kg/injection, schedule: Q01DX001 (ip), vehicle: saline 90 % of control | dose: 20.0 mg/kg/injection, schedule: Q01DX001 (ip), vehicle: saline 95 % of control | dose: 40.0 mg/kg/injection, schedule: Q01DX001 (ip), vehicle: saline 95 % of control | dose: 80.0 mg/kg/injection, schedule: Q01DX001 (ip), vehicle: saline 97 % of control
